Source: patent US9283277B2, “Methods and compositions for the treatment of obesity” (Children's Medical Center Corporation, priority 2008, dated 2016)
Each block holds one compound with its values, some of them ahead of it.

Tests used:
db/db mice = assay: PBA and leptin co-administration in db/db mice; format: in vivo; settings: for body weight / food consumption / food intake: PBA 1 g/kg/day oral and/or leptin 1 mg/kg IP, 16 days
Procedure: Six-week old db/db mice were orally treated with either PBA (1 g/kg/day) or VEH for four days. Following the pretreatment period, leptin receptor-deficient db/db mice were either administered with VEH or leptin (1 mg/kg) through intraperitoneal route for 16 days. (a) Bodyweight (g), (b) percent increase in bodyweight and (c) 24-hour food intake, (d) Blood glucose (mg/dl) levels of the groups. (n=5 in each group). Error bars are ±S.E.M., P values are determined by Student's t-test. (*p<0.05, **p<0.01, ***p<0.001).
We investigated whether the effect created by PBA and leptin combinatory treatment is solely mediated through the LepRb and not due to a non-specific effect. First, we pretreated db/db mice with PBA or vehicle for four days and subsequently initiated the leptin (1 mg/kg) treatment.

HFD-fed obese mice = assay: PBA alone in HFD-fed or ND-fed mice: bodyweight, hypothalamic PERK and leptin-stimulated Stat3 phosphorylation; format: in vivo
Procedure: (§1) C57BL/6 mice that were kept on high fat diet feeding for 25 weeks were either treated with vehicle or PBA (1 g/kg/day) for 10 days. Following the pretreatment period mice were given daily leptin (5 mg/kg/day, IP) treatment. (a) Bodyweight (g), (b) % decrease in the bodyweight, and (c) 24 hour food intake (g) during the 30 days of leptin administration. Metabolic cage analysis was performed after 25 days of treatment (d) O2 consumption (ml/kg/hr), (e) CO2 production (ml/kg/hr), (f) X-axis ambulatory activity, (g) Respiratory exchange ratio (VCO2/VO2), (h) Heat generation (kcal/hr). Dexa scan analysis of (i) Lean body mass (g), (j) Fat % and (k) Total fat amount (g). C57BL6 mice were fed a HFD for a period of 25 weeks and then either treated with PBA (1 g/kg) or VEH for 16 days. (1) PERK phosphorylation in the hypothalamus extracts. (m) Leptin-stimulated Stat3^Tyr705 phosphorylation in the VEH and PBA-treated HFD-fed mice. (n) C57BL6 mice were fed a ND for a period of 25 weeks and then either treated with PBA (1 g/kg) or VEH for 16 days. Following the treatment period mice were starved for six hours and subsequently injected with leptin (IP, 1 mg/kg). Stat3^Tyr705 phoshorylation and total Stat levels were examined in the hypothalamus extracts. (n=6 in each group). Error bars are ±S.E.M., P values are determined by Student's t-test. (*p<0.05, **p<0.01, ***p<0.001)
Mice were fed a HFD (60%) for 25 weeks and following an acclimation PBA (1 gr/kg/day) and vehicle treatment was initiated. (a) Bodyweight, (b) % decrease in bodyweight and (c) daily food intake of VEH and PBA-treated HFD-fed obese mice were analyzed during the 16 days of treatment period. (n=5 in each group) Error bars are ±S.E.M., P values are determined by Student's t-test (*p<0.05, **p<0.01, ***p<0.001).
To investigate whether PBA treatment reduces the ER stress, we analyzed the PERK phosphorylation in the HFD-fed mice, which were either treated with VEH or PBA for 16 days. […] To investigate whether leptin-stimulated activation of LepRB signaling is increased in the hypothalamus of the PBA-treated HFD-fed obese mice, we intraperitoneally injected leptin (0.75 mg/kg) following a six-hour fast and analyzed the Stat3^Tyr705 phosphorylation in the hypothalamus extracts of VEH and PBA-treated mice. […] We also analyzed the leptin-stimulated Stat3^Tyr705 phosphorylation in the hypothalamus of the wt mice, which were either treated with vehicle or PBA for 16 days.

blood brain barrier = assay: Blood brain barrier permeability with Fluoro-gold in PBA-treated HFD-fed mice; format: in vivo; settings: HFD-fed wt male mice; PBA 12 days; Fluoro-gold IP 15 mg/kg
Procedure: Leptin resistance in obesity arises due to both impairment of leptin action in the hypothalamus and defects in the transport of leptin in the blood brain barrier^14,42. […] Three days after the injections, mice were anesthetized and perfused with saline and then 4% paraformaldehyde. After the fixation, brains were removed. Following the necessary further fixation and sectioning, Fluoro-gold staining was performed on the whole brain slices. […] Reactivity against the Fluoro-gold is not different between the vehicle and PBA-treated groups. Fluoro-gold-labeled neurons should be present in the areas like ventro-medial hypothalamus (VMH), dorso-medial hypothalamus (DMH) and lateral hypothalamic area (LHA), if the BBB permeability is perturbed. […] (data not shown)

[1] = tested on: LepRB signaling (LepRB, Jak2, Stat3); assay: Leptin receptor signaling in LepRB-expressing 293 cells under tunicamycin-induced ER stress; format: cell-based, Human; settings: tunicamycin 3 μg/ml (or DMSO) 4 hours, then leptin 100 ng/ml 45 minutes
From the text: The leptin receptor belongs to the interleukin 6 (IL-6) receptor family of class I cytokine receptors^30. […] Binding of leptin to LepRb initiates a conformational change that leads to trans-autophosphorylation and activation of LepRb-associated Jak2^31,32 Activated Jak2 then phosphorylates the tyrosine residues within the LepRb/Jak2 complex to mediate downstream signaling. […] To examine whether UPR might alter the leptin signaling, LepRB-expressing 293 cells were first exposed to tunicamycin (3 μg/ml) to activate ER stress for a period of 4 hours and then treated with leptin (100 ng/ml) for 45 minutes. […] Finally, as a downstream element, leptin-stimulated Stat3 activation was analyzed.

[2] = tested on: HFD-fed obese C57BL/6 mice; assay: PBA pretreatment and leptin in HFD-fed obese mice (bodyweight, metabolic cage, DEXA); format: in vivo
Procedure: as §1
Obesity owing to a high fat diet is fundamentally different from that seen in ob/ob mice in that it occurs in the face of high leptin levels. To determine whether PBA also sensitizes HFD-fed obese mice to leptin, mice that were kept on HFD for 25 weeks were pretreated with vehicle or PBA for 10 days, and then given leptin treatment (5 mg/kg/day). Leptin administration to the vehicle-treated group led to an acute weight loss, which was rapidly regained (FIG. 3a). By the end of treatment period, leptin created a slight but significant change in the body weight in the vehicle-treated group by reducing it from 42.42±0.27 g to 40.78±0.55 (3.8±0.9% decrease in bodyweight) (FIG. 3a,b). […] During the course of the experiment we placed the vehicle and PBA-treated groups in metabolic cages to investigate metabolic homeostasis in detail. […] Following the metabolic cage analysis we performed DEXA scan to analyze whole body fat content.

[3] = HFD-fed mice, PBA 1 g/kg alone, 16 days, vs VEH
[4] = mice on HFD 25 weeks, leptin 5 mg/kg/day IP, 30 days, vehicle or PBA (1 g/kg/day) pretreated

BBB permeability (Fluoro-gold-labeled neurons in VMH, DMH, LHA) (blood brain barrier): not increased
Compound: O=C(O)CCCc1ccccc1 [PBA, 4-phenyl butyric acid]
body weight (db/db mice): significantly gained weight | food consumption / food intake (db/db mice): no difference | blood glucose levels (db/db mice; PBA 1 g/kg/day oral vs vehicle): reduced to a significantly lower level | body weight (HFD-fed obese mice; [3]): did not reduce | food intake (HFD-fed obese mice; [3]): did not reduce | PERK phosphorylation in the hypothalamus (HFD-fed obese mice; HFD-fed obese mice, PBA 1 g/kg, 16 days, vs VEH): marked decrease | leptin-stimulated Stat3 Tyr705 phosphorylation in hypothalamus (HFD-fed obese mice; HFD-fed obese mice, PBA 16 days, leptin 0.75 mg/kg IP after six-hour fast): marked up-regulation | leptin-stimulated Stat3 Tyr705 phosphorylation in hypothalamus (HFD-fed obese mice; ND-fed lean wt mice, PBA 16 days vs VEH, leptin IP 1 mg/kg): did not cause a higher activation

Compound: leptin: adipocyte-derived hormone that suppresses appetite
leptin-induced Stat3 phosphorylation (Tyr705) [1]: significant increase | leptin-stimulated LepRB tyrosine phosphorylation [1]: marked increase | body weight (db/db mice): did not decrease | food consumption / food intake (db/db mice): did not decrease | lean mass ([2]; HFD-fed mice, DEXA scan): does not change | initial body weight ([2]; mice on HFD 25 weeks, before leptin 5 mg/kg/day, vehicle or PBA pretreated 10 days): 42.42 ± 0.27 g | body weight at end of treatment period [2, 4]: 40.78 ± 0.55 g | decrease in bodyweight [2, 4]: 3.8±0.9%
